# From patent US6087119A, “Method for determining the catalytic activity of factor IXa” (Roche Diagnostics GmbH, priority 1996, dated 2000)
# Molecular target: rFIXa (human) (Homo sapiens, UniProt P00740)
# Assay: Influence of the pH on the activity of rFIXa in the presence of ethylene glycol
# Assay type: biochemical
# Set-up: coding for the FIX protease domain from amino acid position 181 to 415; Met (ATG start codon) (N); made in house
# Conditions: 25% ethylene glycol; for increase of cleavage rates: pH 7.0-10.0; for cleavage rate mA/min: rFIXa (human)
# Source text: 0.28 μmol/l rFIXa (human)
# rFIXa (human), sequence (P00740 227-461): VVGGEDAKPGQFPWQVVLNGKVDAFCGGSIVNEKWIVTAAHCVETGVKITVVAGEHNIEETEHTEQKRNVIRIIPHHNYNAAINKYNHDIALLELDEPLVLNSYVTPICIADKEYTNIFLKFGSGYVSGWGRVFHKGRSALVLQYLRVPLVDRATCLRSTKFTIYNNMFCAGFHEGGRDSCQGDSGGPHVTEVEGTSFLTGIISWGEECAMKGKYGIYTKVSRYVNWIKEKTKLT
# rFIXa (human), sequence (P00740 131-226): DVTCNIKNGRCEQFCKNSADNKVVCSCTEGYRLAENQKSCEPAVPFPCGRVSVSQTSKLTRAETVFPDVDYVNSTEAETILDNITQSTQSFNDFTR
smiles,measurement,setting,value
OCCO [Ethylene glycol],increase of cleavage rates,substrate MOC-D-Nle-Gly-Arg-pNA,14 fold
same,increase of cleavage rates,substrate MeSO2-D-CHG-Gly-Arg-pNA,20 fold
same,increase of cleavage rates,substrate MeSO2-D-HHT-Gly-Arg-pNA,10 fold
same,cleavage rate mA/min,"pH 7.0, MOC-D-Nle-Gly-Arg-pNA",31.5 mA/min
same,cleavage rate mA/min,"pH 7.0, MeSO2-D-CHG-Gly-Arg-pNA",154.7 mA/min
same,cleavage rate mA/min,"pH 7.0, MeSO2-D-HHT-Gly-Arg-pNA",56.5 mA/min
same,cleavage rate mA/min,"pH 7.5, MOC-D-Nle-Gly-Arg-pNA",70.1 mA/min
same,cleavage rate mA/min,"pH 7.5, MeSO2-D-CHG-Gly-Arg-pNA",289.8 mA/min
same,cleavage rate mA/min,"pH 7.5, MeSO2-D-HHT-Gly-Arg-pNA",124.5 mA/min
same,cleavage rate mA/min,"pH 8.0, MOC-D-Nle-Gly-Arg-pNA",99.7 mA/min
same,cleavage rate mA/min,"pH 8.0, MeSO2-D-CHG-Gly-Arg-pNA",372.4 mA/min
same,cleavage rate mA/min,"pH 8.0, MeSO2-D-HHT-Gly-Arg-pNA",173.6 mA/min
same,cleavage rate mA/min,"pH 8.25, MOC-D-Nle-Gly-Arg-pNA",102.7 mA/min
same,cleavage rate mA/min,"pH 8.25, MeSO2-D-CHG-Gly-Arg-pNA",382.2 mA/min
same,cleavage rate mA/min,"pH 8.25, MeSO2-D-HHT-Gly-Arg-pNA",176.0 mA/min
same,cleavage rate mA/min,"pH 8.5, MOC-D-Nle-Gly-Arg-pNA",104.3 mA/min
same,cleavage rate mA/min,"pH 8.5, MeSO2-D-CHG-Gly-Arg-pNA",389.8 mA/min
same,cleavage rate mA/min,"pH 8.5, MeSO2-D-HHT-Gly-Arg-pNA",182.1 mA/min
same,cleavage rate mA/min,"pH 8.75, MOC-D-Nle-Gly-Arg-pNA",101.6 mA/min
same,cleavage rate mA/min,"pH 8.75, MeSO2-D-CHG-Gly-Arg-pNA",395.6 mA/min
same,cleavage rate mA/min,"pH 8.75, MeSO2-D-HHT-Gly-Arg-pNA",170.7 mA/min
same,cleavage rate mA/min,"pH 9.0, MOC-D-Nle-Gly-Arg-pNA",97.3 mA/min
same,cleavage rate mA/min,"pH 9.0, MeSO2-D-CHG-Gly-Arg-pNA",373.3 mA/min
same,cleavage rate mA/min,"pH 9.0, MeSO2-D-HHT-Gly-Arg-pNA",164.1 mA/min
same,cleavage rate mA/min,"pH 9.5, MOC-D-Nle-Gly-Arg-pNA",70.7 mA/min
same,cleavage rate mA/min,"pH 9.5, MeSO2-D-CHG-Gly-Arg-pNA",255.6 mA/min
same,cleavage rate mA/min,"pH 9.5, MeSO2-D-HHT-Gly-Arg-pNA",112.0 mA/min
same,cleavage rate mA/min,"pH 10.0, MOC-D-Nle-Gly-Arg-pNA",68.3 mA/min
same,cleavage rate mA/min,"pH 10.0, MeSO2-D-CHG-Gly-Arg-pNA",244.5 mA/min
same,cleavage rate mA/min,"pH 10.0, MeSO2-D-HHT-Gly-Arg-pNA",110.1 mA/min
